ChEMBL document CHEMBL2440076, “New triarylpyrazoles as broad-spectrum anticancer agents: design, synthesis, and biological evaluation” (Eur J Med Chem, 2013)

Key:
Type in all cases: functional
[1] = system: MCF7; assay: Growth inhibition of human MCF7 cells assessed as cell growth at 5X10'-7 M after 48 hrs by sulforhodamine B assay; conditions: MCF7, 48 h, read-out: Activity
[2] = system: HCT-116; assay: Growth inhibition of human HCT116 cells assessed as cell growth at 5X10'-5 M after 48 hrs by sulforhodamine B assay; conditions: HCT-116, 48 h, read-out: Activity
[3] = system: 786-0; assay: Growth inhibition of human 786-0 cells assessed as cell growth at 5X10'-7 M after 48 hrs by sulforhodamine B assay; conditions: 786-0, 48 h, read-out: Activity
[4] = system: TK-10; assay: Growth inhibition of human TK10 cells assessed as cell growth at 5X10'-5 M after 48 hrs by sulforhodamine B assay; conditions: TK-10, 48 h, read-out: Activity
[5] = system: SNB-75; assay: Growth inhibition of human SNB75 cells assessed as cell growth at 5X10'-7 M after 48 hrs by sulforhodamine B assay; conditions: SNB-75, 48 h, read-out: Activity
[6] = system: U-251; assay: Growth inhibition of human U251 cells assessed as cell growth at 5X10'-5 M after 48 hrs by sulforhodamine B assay; conditions: U-251, 48 h, read-out: Activity
[7] = system: KM12; assay: Growth inhibition of human KM12 cells assessed as cell growth at 10 uM after 48 hrs by sulforhodamine B assay; conditions: KM12, 48 h, read-out: Activity
[8] = system: SF-268; assay: Growth inhibition of human SF268 cells assessed as cell growth at 5X10'-5 M after 48 hrs by sulforhodamine B assay; conditions: SF-268, 48 h, read-out: Activity
[9] = system: A498; assay: Growth inhibition of human A498 cells assessed as cell growth at 10 uM after 48 hrs by sulforhodamine B assay; conditions: A498, 48 h, read-out: Activity
[10] = system: OVCAR-4; assay: Growth inhibition of human OVCAR4 cells assessed as cell growth at 10 uM after 48 hrs by sulforhodamine B assay; conditions: OVCAR-4, 48 h, read-out: Activity
[11] = system: SK-MEL-2; assay: Growth inhibition of human SK-MEL-2 cells after 48 hrs by sulforhodamine B assay; conditions: SK-MEL-2, 48 h
[12] = system: HL-60(TB); assay: Growth inhibition of human HL-60(TB) cells assessed as cell growth at 5X10'-5 M after 48 hrs by sulforhodamine B assay; conditions: HL-60, 48 h, read-out: Activity
[13] = system: UACC-257; assay: Growth inhibition of human UACC257 cells assessed as cell growth at 5X10'-9 M after 48 hrs by sulforhodamine B assay; conditions: UACC-257, 48 h, read-out: Activity
[14] = system: K562; assay: Growth inhibition of human K562 cells after 48 hrs by sulforhodamine B assay; conditions: K562, 48 h
[15] = system: Malme-3M; assay: Growth inhibition of human MALME-3M cells assessed as cell growth at 10 uM after 48 hrs by sulforhodamine B assay; conditions: read-out: Activity
[16] = system: SR; assay: Growth inhibition of human SR cells assessed as cell growth at 5X10'-8 M after 48 hrs by sulforhodamine B assay; conditions: read-out: Activity
[17] = system: HOP-62; assay: Growth inhibition of human HOP62 cells after 48 hrs by sulforhodamine B assay; conditions: HOP-62, 48 h
[18] = system: SN12C; assay: Growth inhibition of human SN12C cells assessed as cell growth at 10 uM after 48 hrs by sulforhodamine B assay; conditions: read-out: Activity
[19] = system: SK-OV-3; assay: Growth inhibition of human SKOV3 cells assessed as cell growth at 5X10'-7 M after 48 hrs by sulforhodamine B assay; conditions: SK-OV-3, 48 h, read-out: Activity
[20] = system: OVCAR-8; assay: Growth inhibition of human OVCAR8 cells assessed as cell growth at 5X10'-6 M after 48 hrs by sulforhodamine B assay; conditions: OVCAR-8, 48 h, read-out: Activity
[21] = system: HCT-116; assay: Growth inhibition of human HCT116 cells assessed as cell growth at 5X10'-9 M after 48 hrs by sulforhodamine B assay; conditions: HCT-116, 48 h, read-out: Activity
[22] = system: OVCAR-5; assay: Growth inhibition of human OVCAR5 cells assessed as cell growth at 5X10'-7 M after 48 hrs by sulforhodamine B assay; conditions: OVCAR-5, 48 h, read-out: Activity
[23] = system: SN12C; assay: Growth inhibition of human SN12C cells assessed as cell growth at 5X10'-5 M after 48 hrs by sulforhodamine B assay; conditions: read-out: Activity
[24] = Growth inhibition of human Hs 578T cells assessed as cell growth at 5X10'-7 M after 48 hrs by sulforhodamine B assay; conditions: read-out: Activity
[25] = system: SK-OV-3; assay: Growth inhibition of human SKOV3 cells after 48 hrs by sulforhodamine B assay; conditions: SK-OV-3, 48 h
[26] = system: MCF7; assay: Growth inhibition of human MCF7 cells assessed as cell growth at 5X10'-9 M after 48 hrs by sulforhodamine B assay; conditions: MCF7, 48 h, read-out: Activity
[27] = system: SW-620; assay: Growth inhibition of human SW620 cells assessed as cell growth at 5X10'-6 M after 48 hrs by sulforhodamine B assay; conditions: SW-620, 48 h, read-out: Activity
[28] = system: LOX IMVI; assay: Growth inhibition of human LOXIMVI cells after 48 hrs by sulforhodamine B assay
[29] = system: UACC-62; assay: Growth inhibition of human UACC62 cells assessed as cell growth at 5X10'-6 M after 48 hrs by sulforhodamine B assay; conditions: UACC-62, 48 h, read-out: Activity
[30] = system: SK-MEL-2; assay: Growth inhibition of human SK-MEL-2 cells assessed as cell growth at 10 uM after 48 hrs by sulforhodamine B assay; conditions: SK-MEL-2, 48 h, read-out: Activity
[31] = system: SK-MEL-2; assay: Growth inhibition of human SK-MEL-2 cells assessed as cell growth at 5X10'-8 M after 48 hrs by sulforhodamine B assay; conditions: SK-MEL-2, 48 h, read-out: Activity
[32] = system: UACC-62; assay: Growth inhibition of human UACC62 cells after 48 hrs by sulforhodamine B assay; conditions: UACC-62, 48 h
[33] = system: TK-10; assay: Growth inhibition of human TK10 cells assessed as cell growth at 5X10'-9 M after 48 hrs by sulforhodamine B assay; conditions: TK-10, 48 h, read-out: Activity
[34] = system: DU-145; assay: Growth inhibition of human DU145 cells assessed as cell growth at 10 uM after 48 hrs by sulforhodamine B assay; conditions: DU-145, 48 h, read-out: Activity
[35] = system: MOLT-4; assay: Growth inhibition of human MOLT4 cells assessed as cell growth at 5X10'-8 M after 48 hrs by sulforhodamine B assay; conditions: MOLT-4, 48 h, read-out: Activity
[36] = system: U-251; assay: Growth inhibition of human U251 cells assessed as cell growth at 5X10'-7 M after 48 hrs by sulforhodamine B assay; conditions: U-251, 48 h, read-out: Activity
[37] = system: RXF 393; assay: Growth inhibition of human RXF393 cells assessed as cell growth at 10 uM after 48 hrs by sulforhodamine B assay; conditions: RXF 393, 48 h, read-out: Activity
[38] = read-out: LC50 (the source's name)

## O=C(Nc1cccc(-n2cc(-c3ccncc3)c(-c3ccc(Cl)c(O)c3)n2)c1)Nc1cc(C(F)(F)F)cc(C(F)(F)F)c1
[1]
  growth at 0.5 µM: 52%
[2]
  growth at 50 µM: -96%
[3]
  growth at 0.5 µM: 93%
[4]
  growth at 50 µM: -95%
[5]
  growth at 0.5 µM: 81%
[6]
  growth at 50 µM: -91%
[7]
  growth at 10 µM: -50.3%
[8]
  growth at 50 µM: -65%
[9]
  growth at 10 µM: -18.6%
[10]
  growth at 10 µM: 0.87%
[11]
  GI50: 1250 nM
  LC50 (50% lethal concentration): 14.1 µM
  TGI: 3.03 µM
[12]
  growth at 50 µM: -4%
[13]
  growth at 0.005 µM: 94%
[14]
  GI50: 433 nM
  TGI: 3.93 µM
[14]; [38]
  CC50: > 50 µM
[15]
  growth at 10 µM: -23%
[16]
  growth at 0.05 µM: 102%
[17]
  GI50: 964 nM
  TGI: 1980 nM
[17]; [38]
  CC50: 4.07 µM
[18]
  growth at 10 µM: -36.1%
[19]
  growth at 0.5 µM: 98%
[20]
  growth at 5 µM: 4%
[21]
  growth at 0.005 µM: 101%
[22]
  growth at 0.5 µM: 83%
[23]
  growth at 50 µM: -48%
[24]
  growth at 0.5 µM: 82%
[25]
  GI50: 1350 nM
  TGI: 3.81 µM
[25]; [38]
  CC50: > 50 µM
[26]
  growth at 0.005 µM: 91%
[27]
  growth at 5 µM: 1%
[28]
  GI50: 712 nM
  LC50: 2750 nM
  TGI: 1400 nM
[29]
  growth at 5 µM: -38%
[30]
  growth at 10 µM: -73.7%
[31]
  growth at 0.05 µM: 113%
[32]
  GI50: 749 nM
  LC50 (50% lethal concentration): 8.46 µM
  TGI: 2190 nM
[33]
  growth at 0.005 µM: 107%
[34]
  growth at 10 µM: -28.2%
[35]
  growth at 0.05 µM: 109%
[36]
  growth at 0.5 µM: 49%
[37]
  growth at 10 µM: -66.7%
